Where only a bound is given, the exact number is not on record here.

Series [1] addresses Poly [ADP-ribose] polymerase 1 (Homo sapiens, UniProt P09874).
Description: Inhibition of PARP1 in human HeLa cells by fluid scintillation counting using [adenylated-32P]NAD as substrate
The subject of the next series is PARP1. Briefly: Therapeutic index, ratio of LD40 for human HCT116 cells to drug concentration that reduced half the amount of streptozotocin required to inhibit PARP1-mediated 90% human HCT116 cell growth. The format is cell-based, HCT-116. As to conditions: read-out: TI.
The next series has as its system HCT-116. Briefly: Cytotoxicity against human HCT116 cells. The format is cell-based.

Sequence of Poly [ADP-ribose] polymerase 1 (P09874 whole entry): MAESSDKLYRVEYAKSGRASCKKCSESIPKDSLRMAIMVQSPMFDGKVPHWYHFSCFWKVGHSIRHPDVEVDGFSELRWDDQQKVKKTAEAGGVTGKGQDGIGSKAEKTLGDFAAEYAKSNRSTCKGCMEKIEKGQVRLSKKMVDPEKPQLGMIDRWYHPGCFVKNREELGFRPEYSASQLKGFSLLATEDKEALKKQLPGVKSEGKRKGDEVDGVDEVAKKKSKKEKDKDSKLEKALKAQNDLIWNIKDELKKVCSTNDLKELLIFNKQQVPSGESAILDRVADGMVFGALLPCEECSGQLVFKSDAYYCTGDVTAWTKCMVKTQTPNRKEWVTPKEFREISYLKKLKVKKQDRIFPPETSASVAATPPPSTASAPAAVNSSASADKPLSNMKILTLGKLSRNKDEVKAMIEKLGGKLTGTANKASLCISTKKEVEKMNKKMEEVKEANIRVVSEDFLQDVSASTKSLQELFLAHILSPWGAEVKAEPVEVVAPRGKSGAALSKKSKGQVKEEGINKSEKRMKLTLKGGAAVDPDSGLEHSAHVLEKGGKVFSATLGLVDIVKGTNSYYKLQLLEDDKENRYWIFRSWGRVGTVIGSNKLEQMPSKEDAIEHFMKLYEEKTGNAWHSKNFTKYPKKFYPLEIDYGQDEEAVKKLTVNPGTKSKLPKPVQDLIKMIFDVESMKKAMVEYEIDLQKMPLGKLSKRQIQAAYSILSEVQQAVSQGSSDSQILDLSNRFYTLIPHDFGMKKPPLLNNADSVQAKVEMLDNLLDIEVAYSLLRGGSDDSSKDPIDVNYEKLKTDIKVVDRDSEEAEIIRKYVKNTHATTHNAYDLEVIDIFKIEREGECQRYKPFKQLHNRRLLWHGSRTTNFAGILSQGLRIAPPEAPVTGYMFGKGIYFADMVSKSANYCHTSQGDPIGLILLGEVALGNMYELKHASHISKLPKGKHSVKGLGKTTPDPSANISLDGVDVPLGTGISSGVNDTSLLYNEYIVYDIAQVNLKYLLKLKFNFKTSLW

With `Cc1nn(C)c2[nH]c(=O)c3c(c12)CCCC3`, the IC50 (as a rule, the concentration at which inhibition is half-maximal) in series [1] turned out to be 2.2 nM. Besides, in the series with PARP1, the selectivity ratio is above 6.6. This molecule also returned an LD40 in the series on HCT-116 above 12.5 µM.
Regarding `Cn1nc(-c2cccs2)c2c3c(c(=O)[nH]c21)CSC3`, inhibition in series [1] was half-maximal at 428 nM (IC50). This lies in the sub-micromolar range.
In series [1], `Cc1nn(C)c2nc3c(c(O)c12)CSC3` displayed an IC50 above 10000 nM.
For the molecule `Cc1nn(C)c2[nH]c(=O)c3c(c12)CSC3`, half-maximal inhibition in series [1] (IC50) required 92.7 nM. The selectivity ratio in the series with PARP1 is above 1.8. In the series on HCT-116, this molecule registered an LD40 above 50 µM.
`Cc1nn(-c2ccccc2)c2[nH]c(=O)c3c(c12)CCCC3` had an IC50 in series [1] of 9720 nM.
On to `Cc1nn(C)c2[nH]c3c(c(=O)c12)CCCC3`, for which the IC50 in series [1] is above 10000 nM.
`Cn1nc(-c2ccccc2)c2c3c(c(=O)[nH]c21)CSC3` registered an IC50 in series [1] of 110 nM. The selectivity ratio in the series with PARP1 is 1.4. Further, in the series with HCT-116, the LD40 was found to be 21.2 µM.
Taken in the same sequence, the figures for `Cn1nc(-c2ccccc2)c2c1NC(=O)C1CCCCC21` (configuration not stated) were 7.3 nM, 19.7 and 7.5 µM.
`Cc1nn(C)c2[nH]c3c(c(=O)c12)CCC3` displayed an IC50 in series [1] of 7000 nM.
`Cc1nn(C(C)(C)C)c2[nH]c(=O)c3c(c12)CSC3` gave an IC50 in series [1] of 1840 nM.
In turn, `Cn1nc(-c2cccs2)c2c3c(c(=O)[nH]c21)CCCC3` showed an IC50 in series [1] of 6.9 nM. For the same molecule, in the series with PARP1, the selectivity ratio is above 32.9. This molecule had an LD40 in the series on HCT-116 above 12.5 µM.
With `Cc1nn(C(C)(C)C)c2[nH]c(=O)c3c(c12)CCC3`, the IC50 in series [1] turned out to be 519 nM. This counts as sub-micromolar.
The molecule `Cc1nn(-c2ccccc2)c2[nH]c(=O)c3c(c12)CCC3` gave an IC50 in series [1] above 10000 nM.
With `Cc1nn(C)c2[nH]c(=O)c3c(c12)CCC3`, the IC50 in series [1] was determined as 29.8 nM. In addition, the selectivity ratio with PARP1 was 1.4. The LD40 with HCT-116 was determined as 27.2 µM.
As for `Cn1nc(-c2cccs2)c2c3c(c(=O)[nH]c21)CCC3`, it took 149 nM to reach half-maximal inhibition in series [1] (IC50). In addition, the selectivity ratio in the series with PARP1 is 3.6. Also, the LD40 in the series on HCT-116 is 11.2 µM.
Regarding `Cn1nc(-c2ccccc2)c2c3c(c(=O)[nH]c21)CCC3`, it took 106 nM to reach half-maximal inhibition in series [1] (IC50). The selectivity ratio in the series on PARP1 stood at 1.6. Besides, the LD40 with HCT-116 amounted to 42.5 µM.
In the case of `Cc1cccc2c1CCNC2=O`, half-maximal inhibition in series [1] (IC50) required 160 nM.
The molecule `O=c1[nH]c2c(c(-c3ccccc3)nn2-c2ccccc2)c2c1CCC2` showed an IC50 in series [1] above 10000 nM.
The same measure, in the same setting: the figure for `COc1ccc(-c2nc3c(C(N)=O)cccc3[nH]2)cc1` is 60 nM.
Take `Cc1nn(-c2ccccc2)c2[nH]c(=O)c3c(c12)CSC3`: the IC50 in series [1] was above 10000 nM.
For `O=c1[nH]c2c(c(-c3ccccc3)nn2-c2ccccc2)c2c1CCCC2`, the IC50 in series [1] is above 10000 nM.

The values are drawn from ChEMBL document CHEMBL1141680, “Identification of ring-fused pyrazolo pyridin-2-ones as novel poly(ADP-ribose)polymerase-1 inhibitors” (Bioorg Med Chem Lett, 2008).
